{
  "source": "PubChem BioAssay AID1963430",
  "about": "(Molecular Pharmacology Branch, DTP, NCI, 2024)",
  "test_system": "521955-158-R2-J5-PDC complex spheroid growth, % test/control",
  "experiment": "Anticancer human tumor 521955-158-R2-J5-PDC patient-derived pancreatic carcinoma cell line growth inhibition [Asc]",
  "settings": "for viability, T/C: stronger effect = lower value",
  "method_in_brief": "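Complex solid-tumor spheroids incorporating human endothelial and mesenchymal stem cells received single agents or combinations over half-log dilution ranges anchored to clinical Cmax.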",
  "note": "Values joined by “and” are separate entries in the source; they are usually repeats but may differ in a detail not shown here. Equal values may be shown once.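 Note: spheroids exposed to agents for 7 days before readout.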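 Throughout, for viability, T/C: 100% = DMSO vehicle control viability.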",
  "data": [
    {"smiles": "C=C(F)C(=O)N1CCN(c2nc(OCC3CCCN3C)nc3c2CCN(c2cccc4cccc(Cl)c24)C3)CC1CC#N", "note": "(stereo not drawn) + CCN1C(C(=O)NC23CCC(C(=O)O)(CC2)CC3)C(c2cccc(Cl)c2F)C2(C(=O)Nc3cc(Cl)ccc32)C12CCCCC2", "values": [
      {"measurement": "IC50", "setting": "curve of first compound, second compound 0.03 µM", "result": 5.38, "unit": "µM"},
      {"measurement": "IC50", "setting": "curve of first compound, second compound 0.0949 µM", "result": 5.58, "unit": "µM"},
      {"measurement": "IC50", "setting": "curve of first compound, second compound 0.3 µM", "result": 6.04, "unit": "µM"},
      {"measurement": "IC50", "setting": "curve of first compound, second compound 0.949 µM", "result": 6.7, "unit": "µM"},
      {"measurement": "IC50", "setting": "curve of first compound, second compound 3 µM", "result": 6.81, "unit": "µM"},
      {"measurement": "viability, T/C", "setting": "second compound 0.03 µM, first compound 0.0316 µM", "result": 95.2, "unit": "%"},
      {"measurement": "viability, T/C", "setting": "second compound 0.03 µM, first compound 0.1 µM", "result": 95.1, "unit": "%"},
      {"measurement": "viability, T/C", "setting": "second compound 0.03 µM, first compound 0.316 µM", "result": 77.5, "unit": "%"},
      {"measurement": "viability, T/C", "setting": "second compound 0.03 µM, first compound 1 µM", "result": 85.2, "unit": "%"},
      {"measurement": "viability, T/C", "setting": "second compound 0.03 µM, first compound 3.16 µM", "result": 110, "unit": "%"},
      {"measurement": "viability, T/C", "setting": "second compound 0.03 µM, first compound 10 µM", "result": 0.26, "unit": "%"},
      {"measurement": "viability, T/C", "setting": "second compound 0.0949 µM, first compound 0.0316 µM", "result": 98, "unit": "%"},
      {"measurement": "viability, T/C", "setting": "second compound 0.0949 µM, first compound 0.1 µM", "result": 103, "unit": "%"},
      {"measurement": "viability, T/C", "setting": "second compound 0.0949 µM, first compound 0.316 µM", "result": 71.4, "unit": "%"},
      {"measurement": "viability, T/C", "setting": "second compound 0.0949 µM, first compound 1 µM", "result": 91.5, "unit": "%"},
      {"measurement": "viability, T/C", "setting": "second compound 0.0949 µM, first compound 3.16 µM", "result": 128, "unit": "%"},
      {"measurement": "viability, T/C", "setting": "second compound 0.0949 µM, first compound 10 µM", "result": 0.27, "unit": "%"},
      {"measurement": "viability, T/C", "setting": "second compound 0.3 µM, first compound 0.0316 µM", "result": 110, "unit": "%"},
      {"measurement": "viability, T/C", "setting": "second compound 0.3 µM, first compound 0.1 µM", "result": 98.2, "unit": "%"},
      {"measurement": "viability, T/C", "setting": "second compound 0.3 µM, first compound 0.316 µM", "result": 108, "unit": "%"},
      {"measurement": "viability, T/C", "setting": "second compound 0.3 µM, first compound 1 µM", "result": 113, "unit": "%"},
      {"measurement": "viability, T/C", "setting": "second compound 0.3 µM, first compound 3.16 µM", "result": 141, "unit": "%"},
      {"measurement": "viability, T/C", "setting": "second compound 0.3 µM, first compound 10 µM", "result": 0.27, "unit": "%"},
      {"measurement": "viability, T/C", "setting": "second compound 0.949 µM, first compound 0.0316 µM", "result": 130, "unit": "%"},
      {"measurement": "viability, T/C", "setting": "second compound 0.949 µM, first compound 0.1 µM", "result": 95.8, "unit": "%"},
      {"measurement": "viability, T/C", "setting": "second compound 0.949 µM, first compound 0.316 µM", "result": 109, "unit": "%"},
      {"measurement": "viability, T/C", "setting": "second compound 0.949 µM, first compound 1 µM", "result": 112, "unit": "%"},
      {"measurement": "viability, T/C", "setting": "second compound 0.949 µM, first compound 3.16 µM", "result": 152, "unit": "%"},
      {"measurement": "viability, T/C", "setting": "second compound 0.949 µM, first compound 10 µM", "result": 12.7, "unit": "%"},
      {"measurement": "viability, T/C", "setting": "second compound 3 µM, first compound 0.0316 µM", "result": 120, "unit": "%"},
      {"measurement": "viability, T/C", "setting": "second compound 3 µM, first compound 0.1 µM", "result": 154, "unit": "%"},
      {"measurement": "viability, T/C", "setting": "second compound 3 µM, first compound 0.316 µM", "result": 146, "unit": "%"},
      {"measurement": "viability, T/C", "setting": "second compound 3 µM, first compound 1 µM", "result": 137, "unit": "%"},
      {"measurement": "viability, T/C", "setting": "second compound 3 µM, first compound 3.16 µM", "result": 188, "unit": "%"},
      {"measurement": "viability, T/C", "setting": "second compound 3 µM, first compound 10 µM", "result": 0.35, "unit": "%"}
    ]},
    {"smiles": "CNC(C)C(=O)NC1CN(S(=O)(=O)c2cccc(S(=O)(=O)N3CCC4CCC(C(=O)NC(c5ccccc5)c5ccccc5)N4C(=O)C(NC(=O)C(C)NC)C3)c2)CCC2CCC(C(=O)NC(c3ccccc3)c3ccccc3)N2C1=O", "note": "(stereo not drawn)", "values": [
      {"measurement": "viability, T/C", "setting": "compound 0.00316 µM", "result": "72.5% and 68.6%"},
      {"measurement": "IC50", "setting": "compound alone, run of 10/03/2022", "result": "> 1", "unit": "µM"},
      {"measurement": "IC50", "setting": "curve of compound", "result": "> 1", "unit": "µM"}
    ]},
    {"smiles": "CCN1C(C(=O)NC23CCC(C(=O)O)(CC2)CC3)C(c2cccc(Cl)c2F)C2(C(=O)Nc3cc(Cl)ccc32)C12CCCCC2", "note": "(stereo not drawn) + Cc1c(S(C)(=O)=O)c(-c2cc(F)cc(N3CCN(c4ccc(NS(=O)(=O)c5ccc(NC(CCN6CCC(C(=O)OCCCP(=O)(O)O)CC6)CSc6ccccc6)c(S(=O)(=O)C(F)(F)F)c5)cc4)CC3)c2)c(-c2ccc(Cl)cc2)n1C(C)C", "values": [
      {"measurement": "IC50", "setting": "curve of first compound, second compound 0.1 µM", "result": "> 3", "unit": "µM"},
      {"measurement": "IC50", "setting": "curve of first compound, second compound 0.316 µM", "result": "> 3", "unit": "µM"},
      {"measurement": "IC50", "setting": "curve of first compound, second compound 1 µM", "result": "> 3", "unit": "µM"},
      {"measurement": "IC50", "setting": "curve of first compound, second compound 3.16 µM", "result": "> 3", "unit": "µM"},
      {"measurement": "IC50", "setting": "curve of first compound, second compound 10 µM", "result": "> 3", "unit": "µM"},
      {"measurement": "viability, T/C", "setting": "second compound 0.1 µM, first compound 0.00949 µM", "result": 70.7, "unit": "%"},
      {"measurement": "viability, T/C", "setting": "second compound 0.1 µM, first compound 0.03 µM", "result": 80.8, "unit": "%"},
      {"measurement": "viability, T/C", "setting": "second compound 0.1 µM, first compound 0.0949 µM", "result": 54.6, "unit": "%"},
      {"measurement": "viability, T/C", "setting": "second compound 0.1 µM, first compound 0.3 µM", "result": 95, "unit": "%"},
      {"measurement": "viability, T/C", "setting": "second compound 0.1 µM, first compound 0.949 µM", "result": 76.5, "unit": "%"},
      {"measurement": "viability, T/C", "setting": "second compound 0.1 µM, first compound 3 µM", "result": 92.6, "unit": "%"},
      {"measurement": "viability, T/C", "setting": "second compound 0.316 µM, first compound 0.00949 µM", "result": 73.3, "unit": "%"},
      {"measurement": "viability, T/C", "setting": "second compound 0.316 µM, first compound 0.03 µM", "result": 90.4, "unit": "%"},
      {"measurement": "viability, T/C", "setting": "second compound 0.316 µM, first compound 0.0949 µM", "result": 61.1, "unit": "%"},
      {"measurement": "viability, T/C", "setting": "second compound 0.316 µM, first compound 0.3 µM", "result": 72.8, "unit": "%"},
      {"measurement": "viability, T/C", "setting": "second compound 0.316 µM, first compound 0.949 µM", "result": 76, "unit": "%"},
      {"measurement": "viability, T/C", "setting": "second compound 0.316 µM, first compound 3 µM", "result": 89.6, "unit": "%"},
      {"measurement": "viability, T/C", "setting": "second compound 1 µM, first compound 0.00949 µM", "result": 66.2, "unit": "%"},
      {"measurement": "viability, T/C", "setting": "second compound 1 µM, first compound 0.03 µM", "result": 91, "unit": "%"},
      {"measurement": "viability, T/C", "setting": "second compound 1 µM, first compound 0.0949 µM", "result": 69.4, "unit": "%"},
      {"measurement": "viability, T/C", "setting": "second compound 1 µM, first compound 0.3 µM", "result": 74.1, "unit": "%"},
      {"measurement": "viability, T/C", "setting": "second compound 1 µM, first compound 0.949 µM", "result": 67.7, "unit": "%"},
      {"measurement": "viability, T/C", "setting": "second compound 1 µM, first compound 3 µM", "result": 64.5, "unit": "%"},
      {"measurement": "viability, T/C", "setting": "second compound 3.16 µM, first compound 0.00949 µM", "result": 111, "unit": "%"},
      {"measurement": "viability, T/C", "setting": "second compound 3.16 µM, first compound 0.03 µM", "result": 91.7, "unit": "%"},
      {"measurement": "viability, T/C", "setting": "second compound 3.16 µM, first compound 0.0949 µM", "result": 86.1, "unit": "%"},
      {"measurement": "viability, T/C", "setting": "second compound 3.16 µM, first compound 0.3 µM", "result": 100, "unit": "%"},
      {"measurement": "viability, T/C", "setting": "second compound 3.16 µM, first compound 0.949 µM", "result": 77, "unit": "%"},
      {"measurement": "viability, T/C", "setting": "second compound 3.16 µM, first compound 3 µM", "result": 76.7, "unit": "%"},
      {"measurement": "viability, T/C", "setting": "second compound 10 µM, first compound 0.00949 µM", "result": 151, "unit": "%"},
      {"measurement": "viability, T/C", "setting": "second compound 10 µM, first compound 0.03 µM", "result": 153, "unit": "%"},
      {"measurement": "viability, T/C", "setting": "second compound 10 µM, first compound 0.0949 µM", "result": 166, "unit": "%"},
      {"measurement": "viability, T/C", "setting": "second compound 10 µM, first compound 0.3 µM", "result": 169, "unit": "%"},
      {"measurement": "viability, T/C", "setting": "second compound 10 µM, first compound 0.949 µM", "result": 107, "unit": "%"},
      {"measurement": "viability, T/C", "setting": "second compound 10 µM, first compound 3 µM", "result": 112, "unit": "%"}
    ]}
  ]
}
